The nature of data set [1]: Metabolic stability in human liver microsomes assessed as half life. It is filed as ADME, Microsome. On the technique in general: Liver microsomes are a subcellular fraction often used to study metabolism.
Data set [2] in a line: Metabolic stability in human hepatocytes assessed as half life. It is filed as ADME, cell-based, Hepatocyte.
The nature of data set [3]: Reactivity of SuTEx assessed as aryl-LG modifications by measuring half life by HLPC analysis. It is filed as physicochemical.
Data set [4] addresses T1, Chromobox protein homolog 8 (Homo sapiens) (UniProt Q9HC52).
T1 sequence (whole entry): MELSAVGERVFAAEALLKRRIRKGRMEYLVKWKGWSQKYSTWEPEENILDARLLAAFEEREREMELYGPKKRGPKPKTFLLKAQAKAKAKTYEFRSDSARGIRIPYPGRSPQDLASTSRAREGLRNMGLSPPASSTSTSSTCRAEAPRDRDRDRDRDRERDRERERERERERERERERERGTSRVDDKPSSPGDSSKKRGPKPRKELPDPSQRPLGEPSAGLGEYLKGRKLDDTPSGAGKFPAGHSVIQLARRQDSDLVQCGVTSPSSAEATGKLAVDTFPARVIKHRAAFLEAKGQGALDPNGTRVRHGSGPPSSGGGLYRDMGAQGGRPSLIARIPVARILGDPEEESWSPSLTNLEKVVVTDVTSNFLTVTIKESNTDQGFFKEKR
The data set is described as follows: Binding affinity to CBX8 (unknown origin) assessed as rate constant of covalent modification (Kinact).

The target of data set [5] is T2, Replicase polyprotein 1ab (Severe acute respiratory syndrome coronavirus 2, UniProt P0DTD1). The data set is described as follows: Inhibition of SARS-CoV-2 cysteine protease main protease.
Data set [6] is described as follows: Cytotoxicity against African green monkey Vero E6 cells. The format is toxicity, cell-based, Vero C1008. Particulars: chlorocebus sabaeus.
For data set [7], the target named is Induced myeloid leukemia cell differentiation protein Mcl-1 (Homo sapiens, UniProt Q07820). The data set is described as follows: Irreversible inhibition of MCL-1 (unknown origin) measured after 8 hrs.
In data set [8] the target is T3, Peptidyl-prolyl cis-trans isomerase E (Homo sapiens, UniProt Q9UNP9). The data set is described as follows: Inhibition of CypE (unknown origin) expressed in Escherichia coli BL21(DE3) by FLIPR based Chymotrypsin coupled prolyl-isomerase assay.
Data set [9] has as its target T3, Peptidyl-prolyl cis-trans isomerase E. The data set is described as follows: Inhibition of CypE (unknown origin) assessed as apparent inhibition constant incubated for 24 hrs by Competition anisotropy binding assay. Particulars: read-out: Ki(app).
Another data set addresses Pyruvate kinase PKLR (Homo sapiens, UniProt P30613). The data set is described as follows: Allosteric activation at human liver pyruvate kinase.
Data set [10] can be described thus: Inhibition of staphylococcus aureus Sortase A assessed as fluorescence polarization using reporter peptide W7-F incubated for 30 mins by competition assay.
The nature of data set [11]: Stability of the compound in human plasma assessed as half life. It is filed as ADME, cell-free.
Data set [12] addresses T2, Replicase polyprotein 1ab. The data set is described as follows: Inhibition of SARS-CoV-2 Main protease (Mpro) by FRET assay.
Data set [13] is described as follows: Thiol reactivity of compound assessed as (Kinact/Ki) rate constant ratio. It is filed as ADME.
Data set [14] has as its target T4, Tyrosine-protein kinase BTK (Homo sapiens, UniProt Q06187). The data set is described as follows: Binding affinity to BTK (unknown origin) assessed as inhibition constant.
Data set [15] addresses T4, Tyrosine-protein kinase BTK.
Description: Binding affinity to BTK (unknown origin) assessed as inactivation rate constant (Kinact)
Data set [16] can be described thus: Toxicity in ip dosed mature male rabbit assessed as death. It is filed as organism-based, Oryctolagus cuniculus. Particulars: in vivo.
For data set [17], the target named is Bromodomain-containing protein 4 (Homo sapiens) (UniProt O60885). The data set is described as follows: Binding affinity to his-tagged recombinant BRD4 BD1 (unknown origin) assessed as increase in thermal stability by measuring change in melting temperature after 4 hrs by cellular thermal shift assay.
Data set [18] is described as follows: Stability of the compound in pH 7.5 PBS assessed as hydrolysis by measuring half life at 500 uM by LC-MS analysis. Particulars: PBS pH 7.5, pH 7.5. It is filed as physicochemical.
A short description of data set [19]: GSH reactivity in PBS buffer at pH 7.5 assessed as half life at 500 uM by LC-MS analysis. The format is ADME.
The target of data set [20] is Eukaryotic translation initiation factor 4E (Homo sapiens) (UniProt P06730). The data set is described as follows: Inhibition of eIF4E (unknown origin) assessed as inactivation rate constant (Kinact).
Data set [21] shares this target. The data set is described as follows: Inhibition of eIF4E (unknown origin) assessed as reaction rate Kinact/Ki ratio.
The target of another data set is Signal peptidase I (Escherichia coli K-12, UniProt P00803). The data set is described as follows: Binding affinity to Escherichia coli type I signal peptidase LepB assessed as inhibition constant.
Data set [22] has as its target Signal peptidase I (Escherichia coli K-12) (UniProt P00803). The data set is described as follows: Irreversible inhibition of Escherichia coli type I signal peptidase LepB assessed as inactivation rate constant (Kinact).
The target is the same in data set [23]. The data set is described as follows: Inhibition of Escherichia coli type I signal peptidase LepB assessed as reaction rate Kinact/Ki ratio.

Molecules are shown by their SMILES.

The half-life is the time needed for the level to fall by half in the phase considered. For orientation: IC50 means the midpoint of a concentration-inhibition curve. As usually defined, the CC50 is the concentration that lowers cell viability or growth by half. In general, EC50 refers to the concentration that produces a half-maximal response. For orientation: kinact/KI means the second-order rate constant of inactivation. What is called LD50 is the dose expected to kill half of the subjects tested. By ΔTm is commonly meant the change in melting temperature against a reference sample.

Sequence of Signal peptidase I (Escherichia coli K-12) (P00803 whole entry): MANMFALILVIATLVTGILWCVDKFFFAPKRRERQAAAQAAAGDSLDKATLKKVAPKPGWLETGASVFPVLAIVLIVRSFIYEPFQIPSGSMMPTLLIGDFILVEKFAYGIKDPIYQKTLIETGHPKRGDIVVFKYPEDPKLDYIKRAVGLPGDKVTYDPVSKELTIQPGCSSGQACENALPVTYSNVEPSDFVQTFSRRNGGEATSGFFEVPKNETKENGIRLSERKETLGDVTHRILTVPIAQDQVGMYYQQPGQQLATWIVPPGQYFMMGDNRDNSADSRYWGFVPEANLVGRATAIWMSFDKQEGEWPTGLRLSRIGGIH
Sequence of Eukaryotic translation initiation factor 4E (Homo sapiens) (P06730 whole entry): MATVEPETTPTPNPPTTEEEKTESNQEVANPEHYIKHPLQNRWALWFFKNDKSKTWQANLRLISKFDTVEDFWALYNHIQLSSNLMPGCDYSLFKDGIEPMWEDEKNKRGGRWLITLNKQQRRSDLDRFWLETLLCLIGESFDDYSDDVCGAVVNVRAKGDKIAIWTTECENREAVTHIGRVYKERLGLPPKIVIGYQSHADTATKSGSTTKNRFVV
T3 sequence (Q9UNP9 whole entry): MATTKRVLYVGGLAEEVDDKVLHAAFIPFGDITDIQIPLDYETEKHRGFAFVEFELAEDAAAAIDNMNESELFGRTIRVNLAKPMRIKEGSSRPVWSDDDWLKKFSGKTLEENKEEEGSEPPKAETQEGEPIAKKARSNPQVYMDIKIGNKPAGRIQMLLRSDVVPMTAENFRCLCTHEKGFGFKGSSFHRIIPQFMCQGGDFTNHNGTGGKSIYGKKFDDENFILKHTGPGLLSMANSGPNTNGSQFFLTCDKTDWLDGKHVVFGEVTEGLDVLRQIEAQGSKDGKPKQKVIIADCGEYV
T4 sequence (Q06187 whole entry): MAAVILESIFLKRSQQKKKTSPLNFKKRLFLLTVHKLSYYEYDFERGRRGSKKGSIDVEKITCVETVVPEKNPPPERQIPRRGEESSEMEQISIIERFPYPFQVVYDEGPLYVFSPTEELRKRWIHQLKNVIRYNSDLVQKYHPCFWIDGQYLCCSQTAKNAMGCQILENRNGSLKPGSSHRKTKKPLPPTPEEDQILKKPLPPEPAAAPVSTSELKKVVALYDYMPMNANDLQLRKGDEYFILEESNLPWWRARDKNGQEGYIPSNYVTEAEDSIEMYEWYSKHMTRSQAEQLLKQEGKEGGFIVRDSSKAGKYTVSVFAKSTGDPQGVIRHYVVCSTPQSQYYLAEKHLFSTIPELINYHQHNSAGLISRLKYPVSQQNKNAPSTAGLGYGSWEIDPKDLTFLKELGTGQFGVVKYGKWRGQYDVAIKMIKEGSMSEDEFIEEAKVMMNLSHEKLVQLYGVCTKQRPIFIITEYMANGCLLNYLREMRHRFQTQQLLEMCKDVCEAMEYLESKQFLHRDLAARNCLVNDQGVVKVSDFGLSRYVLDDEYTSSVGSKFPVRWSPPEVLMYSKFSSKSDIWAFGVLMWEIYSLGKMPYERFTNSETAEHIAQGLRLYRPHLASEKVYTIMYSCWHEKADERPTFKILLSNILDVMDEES
Sequence of Pyruvate kinase PKLR (P30613 whole entry): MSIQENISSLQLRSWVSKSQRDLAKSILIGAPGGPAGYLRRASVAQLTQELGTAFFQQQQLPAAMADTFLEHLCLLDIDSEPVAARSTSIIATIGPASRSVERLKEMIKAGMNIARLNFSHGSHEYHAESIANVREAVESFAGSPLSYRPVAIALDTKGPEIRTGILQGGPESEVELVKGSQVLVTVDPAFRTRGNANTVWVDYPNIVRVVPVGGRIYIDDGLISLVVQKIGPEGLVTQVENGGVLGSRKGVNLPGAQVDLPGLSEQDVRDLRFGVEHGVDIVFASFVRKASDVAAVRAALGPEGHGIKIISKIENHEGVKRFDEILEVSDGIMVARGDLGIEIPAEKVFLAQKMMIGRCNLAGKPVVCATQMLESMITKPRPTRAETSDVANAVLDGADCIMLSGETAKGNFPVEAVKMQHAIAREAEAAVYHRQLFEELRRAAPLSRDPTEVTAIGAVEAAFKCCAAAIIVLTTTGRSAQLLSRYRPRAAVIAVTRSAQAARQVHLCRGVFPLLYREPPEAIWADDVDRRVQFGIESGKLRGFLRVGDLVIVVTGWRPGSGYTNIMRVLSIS
Sequence of Signal peptidase I (P00803 whole entry): as the sequence (P00803 whole entry) above
Sequence of Induced myeloid leukemia cell differentiation protein Mcl-1 (Q07820 whole entry): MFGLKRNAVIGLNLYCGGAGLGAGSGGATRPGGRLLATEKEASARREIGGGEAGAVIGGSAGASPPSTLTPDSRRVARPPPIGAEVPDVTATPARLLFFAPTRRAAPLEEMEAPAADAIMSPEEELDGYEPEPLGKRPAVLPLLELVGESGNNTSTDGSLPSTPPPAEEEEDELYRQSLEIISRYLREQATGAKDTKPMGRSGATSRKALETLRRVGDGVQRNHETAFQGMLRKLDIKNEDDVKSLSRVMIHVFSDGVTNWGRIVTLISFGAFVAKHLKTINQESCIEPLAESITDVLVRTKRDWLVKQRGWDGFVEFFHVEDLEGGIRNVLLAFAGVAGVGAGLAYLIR

With `O=C1CCC(N2Cc3ccc(OS(=O)(=O)F)cc3C2=O)C(=O)N1` (stereo not given), the values for the half-life in data set [1] and in data set [2] were more than 145 min and more than 217 min, respectively. For the compound `O=S(=O)(c1ccc(F)cc1)n1cnc(-c2ccc(C(F)(F)F)cc2)n1`, the half-life in [3] stood at 3.2 min. Besides, in data set [4], the K is 2.9 10^-3/M/s.

As to `C[C@@H](NC(=O)[C@H](c1cccnc1)N(C(=O)C(Br)(Br)Br)c1ccc(-c2ccccc2)cc1)c1ccccc1`, in data set [5], the IC50 is 80 nM. In addition, half-maximal cytotoxicity in data set [6] (CC50) was put at 5480 nM. In [7], `C#Cc1ccc(OCc2nn(C)c(C)c2-c2cccc3c(CCCOc4cccc5ccccc45)c(C(=O)O)[nH]c23)cc1C=O` registered an IC50 of 26.8 nM. `NCCOCCNC(=O)[C@@H]1CCNC(=O)/C=C/C(=O)N2CCC[C@](Cc3ccccc3)(C2)C(=O)N[C@@H](Cc2ccc(-c3ccccc3)cc2)C(=O)NCc2ccccc2CC(=O)N1` showed an IC50 in data set [8] of 13 nM. In addition, the Ki in data set [9] turned out to be 72 nM. Consider `COC(=O)c1ccccc1SC1=NS(=O)(=O)c2ccccc21`, for which, at Pyruvate kinase PKLR, a half-maximal response (EC50) required 290 nM. As for `O=Cc1ccccc1NCc1ccccc1B(O)O`, the IC50 in [10] turned out to be 1300 nM. As for `O=C1CCC(N2Cc3ccc(S(=O)(=O)n4cncn4)cc3C2=O)C(=O)N1` (stereo not given), in [11], the half-life is less than 1 min.

For the compound `O=C[C@H](CC1CCNC1=O)NC(=O)[C@H](Cc1cccc(F)c1)NC(=O)c1cc2ccccc2[nH]1` (stereo not given in full), the half-maximal inhibitory concentration (IC50) in [12] came out at 40 nM. On to `CC(C)(C)OC(=O)/C=C/C(=O)N1CCC[C@@H](n2nc(-c3ccc(Oc4ccccc4)cc3)c3c(N)ncnc32)C1`, for which, in [13], the kinact/KI is 35000 M⁻¹ s⁻¹. In addition, the Ki in [14] amounted to 221 nM. The Kinact in data set [15] was 7.62 10^-3/s. As for `O=C(NCCCCCCCCNC(=O)C(Cl)Cl)C(Cl)Cl`, in [16], the median lethal dose (LD50) was 10000 mg/kg. Consider `Cc1noc(C)c1-c1ccc(=O)n(Cc2ccc(C3CO3)cc2)c1` (stereo not given), for which the ΔTm in [17] is 22 °C. For `CNc1nc2ccc(N(Cc3ccnc(Cl)c3)S(=O)(=O)c3cccc(S(=O)(=O)F)c3)cc2c(=O)[nH]1`, the half-life at 500 µM in [18] came to 30 min; in [19], 2.7 min. Also, in data set [20], the Kinact was 2 10^-2/s. The Ratio in data set [21] was 5.5 10^3/M/s. Consider `Cc1nc(-c2ccc(C(C)(C)C)cc2)ncc1C(=O)N[C@@H](CCN)C(=O)N(C)[C@@H]1C(=O)N[C@@H](C)C(=O)N[C@H](C(=O)NCC#N)Cc2ccc(OCCN)c(c2)-c2cc1ccc2OCCN`, for which, on Signal peptidase I, the Ki came out at 0.44 nM. In addition, the Kinact in data set [22] is 7 10^-4/s. Besides, the Ratio in data set [23] is 1.6 10^6/M/s.
